The target in test [1] is T1, Peroxisome proliferator-activated receptor alpha (Homo sapiens) (UniProt Q07869).
T1 sequence (whole entry): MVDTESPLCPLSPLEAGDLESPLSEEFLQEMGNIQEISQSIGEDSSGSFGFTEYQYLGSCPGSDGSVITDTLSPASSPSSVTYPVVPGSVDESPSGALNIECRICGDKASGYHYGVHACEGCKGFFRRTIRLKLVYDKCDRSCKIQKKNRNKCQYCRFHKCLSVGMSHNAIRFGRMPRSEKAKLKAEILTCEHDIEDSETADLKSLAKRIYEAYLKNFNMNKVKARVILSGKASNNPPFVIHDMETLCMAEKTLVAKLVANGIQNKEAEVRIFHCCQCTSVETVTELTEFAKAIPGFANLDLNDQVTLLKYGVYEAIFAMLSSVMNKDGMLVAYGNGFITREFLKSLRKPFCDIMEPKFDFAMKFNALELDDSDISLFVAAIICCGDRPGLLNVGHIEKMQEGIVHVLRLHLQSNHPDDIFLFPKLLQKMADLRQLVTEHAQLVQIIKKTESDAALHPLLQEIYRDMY
Briefly: Agonist activity at PPAR-alpha (unknown origin) by luciferase reporter gene assay. A general note: In a reporter assay the amount or activity of a reporter protein is the signal.

The target of test [2] is T2, Oxysterols receptor LXR-beta (Homo sapiens, UniProt P55055). Briefly: Binding affinity to LXR-beta ligand binding domain (unknown origin) by TR-FRET assay in presence of 0.1 uM agonist N-(4-(1,1,1,3,3,3-hexafluoro-2-hydroxypropan-2-yl)phenyl)-N-(2,2,2-trifluoroethyl)benzenesulfonamide. For orientation: TR-FRET usually uses a lanthanide donor and a delayed reading to cut background.

The target in test [3] is T3, Peroxisome proliferator-activated receptor gamma (Homo sapiens) (UniProt P37231).
T3 sequence (whole entry): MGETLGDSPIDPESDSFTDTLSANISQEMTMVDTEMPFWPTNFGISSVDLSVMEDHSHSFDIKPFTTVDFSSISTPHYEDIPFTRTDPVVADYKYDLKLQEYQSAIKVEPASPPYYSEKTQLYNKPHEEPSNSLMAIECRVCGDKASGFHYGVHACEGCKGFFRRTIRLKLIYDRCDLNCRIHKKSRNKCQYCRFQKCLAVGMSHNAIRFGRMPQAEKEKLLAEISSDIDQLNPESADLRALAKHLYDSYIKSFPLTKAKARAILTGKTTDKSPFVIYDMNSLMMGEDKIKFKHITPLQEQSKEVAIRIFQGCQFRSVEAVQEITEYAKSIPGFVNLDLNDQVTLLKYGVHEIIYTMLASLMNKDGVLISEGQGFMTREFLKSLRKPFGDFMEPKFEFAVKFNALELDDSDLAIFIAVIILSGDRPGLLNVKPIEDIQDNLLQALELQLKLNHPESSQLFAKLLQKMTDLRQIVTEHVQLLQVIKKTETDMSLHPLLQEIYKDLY
Briefly: Agonist activity at PPAR-gamma (unknown origin) by luciferase reporter gene assay.

Test [4] has as its target Oxysterols receptor LXR-alpha (Homo sapiens, UniProt Q13133). The test can be described thus: Antagonist activity at human LXR-alpha transfected in HEK293 cells after 16 hrs by luciferase reporter gene assay in presence of 0.3 uM N-(4-(1,1,1,3,3,3-hexafluoro-2-hydroxypropan-2-yl)phenyl)-N-(2,2,2-trifluoroethyl)benzenesulfonamide. It is filed as cell-based.
For test [5], the target named is T4, Peroxisome proliferator-activated receptor delta (Homo sapiens) (UniProt Q03181).
T4 sequence (whole entry): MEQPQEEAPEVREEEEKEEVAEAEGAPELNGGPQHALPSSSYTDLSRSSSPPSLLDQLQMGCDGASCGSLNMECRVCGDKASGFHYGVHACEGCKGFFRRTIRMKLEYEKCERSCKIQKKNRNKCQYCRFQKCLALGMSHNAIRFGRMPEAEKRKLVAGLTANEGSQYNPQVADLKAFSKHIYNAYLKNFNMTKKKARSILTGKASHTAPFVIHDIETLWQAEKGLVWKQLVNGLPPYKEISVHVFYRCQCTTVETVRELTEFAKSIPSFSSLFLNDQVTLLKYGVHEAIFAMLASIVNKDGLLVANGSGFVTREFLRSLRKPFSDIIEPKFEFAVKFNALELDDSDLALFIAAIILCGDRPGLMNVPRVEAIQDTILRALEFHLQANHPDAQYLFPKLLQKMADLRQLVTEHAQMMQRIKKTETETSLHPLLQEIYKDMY
Briefly: Agonist activity at PPAR-delta (unknown origin) by luciferase reporter gene assay.

Test [6] deals with THP-1. Briefly: Inhibition of LPS-induced IL-6 production in human THP1 cells transfected with LXR-beta CRISPR/Cas9 knockout plasmid at 5 uM after 18 hrs by ELISA. It is filed as functional, cell-based.
The test system of test [7] is THP-1. Briefly: Effect on ABCA1 gene expression in human THP1 cells at 10 uM by RT-PCR analysis. The class given is functional, cell-based.
The target in test [8] is T2, Oxysterols receptor LXR-beta. Briefly: Antagonist activity at human LXR-beta transfected in HEK293 cells after 16 hrs by luciferase reporter gene assay in presence of 0.1 uM N-(4-(1,1,1,3,3,3-hexafluoro-2-hydroxypropan-2-yl)phenyl)-N-(2,2,2-trifluoroethyl)benzenesulfonamide. It is filed as cell-based.
Test [9] deals with THP-1. The test can be described thus: Effect on SREBP-1c gene expression in human THP1 cells at 10 uM by RT-PCR analysis. The class given is functional, cell-based.

Active and inactive are the calls of the source. The rule behind the calls is not given here.

T2 sequence (P55055 whole entry, the tested form may be a part): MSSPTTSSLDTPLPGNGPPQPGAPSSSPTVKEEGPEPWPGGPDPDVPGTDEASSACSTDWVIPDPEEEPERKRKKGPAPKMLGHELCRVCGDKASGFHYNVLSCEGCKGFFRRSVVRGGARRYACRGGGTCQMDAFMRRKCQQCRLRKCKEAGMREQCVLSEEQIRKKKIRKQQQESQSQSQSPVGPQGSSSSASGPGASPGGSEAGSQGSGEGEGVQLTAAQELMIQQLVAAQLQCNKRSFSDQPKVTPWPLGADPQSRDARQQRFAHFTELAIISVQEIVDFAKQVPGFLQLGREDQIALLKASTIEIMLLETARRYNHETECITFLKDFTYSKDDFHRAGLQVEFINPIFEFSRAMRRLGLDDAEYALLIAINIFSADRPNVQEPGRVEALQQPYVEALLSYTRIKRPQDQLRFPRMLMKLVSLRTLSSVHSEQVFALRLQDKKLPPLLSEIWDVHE
Oxysterols receptor LXR-alpha, sequence (Q13133 whole entry): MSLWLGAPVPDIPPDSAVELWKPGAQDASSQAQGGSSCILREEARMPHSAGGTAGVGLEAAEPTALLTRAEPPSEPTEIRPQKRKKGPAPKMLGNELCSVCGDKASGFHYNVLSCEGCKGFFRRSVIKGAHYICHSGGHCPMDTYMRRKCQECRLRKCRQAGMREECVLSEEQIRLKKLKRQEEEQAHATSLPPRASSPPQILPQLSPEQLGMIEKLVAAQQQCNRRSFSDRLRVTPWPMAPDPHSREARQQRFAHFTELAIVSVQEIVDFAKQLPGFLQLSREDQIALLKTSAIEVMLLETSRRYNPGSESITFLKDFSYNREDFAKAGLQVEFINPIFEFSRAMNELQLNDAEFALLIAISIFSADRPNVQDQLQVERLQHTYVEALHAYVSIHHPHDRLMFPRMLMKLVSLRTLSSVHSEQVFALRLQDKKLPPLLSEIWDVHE

As usually defined, the IC50 is the concentration that gives 50% inhibition. Take `COc1ccc(/C=C/c2ccccc2N2C(=O)c3ccccc3C2=O)cc1OC`: the inhibition entry in [1], in [3] and in test [5] was “Active” each time. In addition, the results for the 50% inhibitory concentration (IC50) in test [2], in [4] and in test [8] were 1.8 µM, 3.3 µM and 4.3 µM, respectively. Besides, in test [6], the inhibition result is “inactive”. Moreover, the result in test [7] and in [9] was inactive.
For `COc1ccc(/C=C\c2ccccc2N2C(=O)c3ccccc3C2=O)cc1OC`, the IC50 in test [4] amounted to 17 µM; in test [8], 21 µM.
